The values below come from article PMC13120037 (2026).

Experiment [1] has as its system Seq78-4 (DNA, aptamer) GGGAGCTCAGAATAAACGCTCAATTTTCGCTGGCTAGTCAGTTTTCTCGTCGTGTGATTTCGACATGAGGCCCGGATC
Put plainly: magnetic-bead strand release, supernatant absorbance (Nanodrop). The note with it: 25 °C, 60 min; 20 μM α-amanitin; capture strand Capture-am-biotin displaced; Langmuir single-point calculation, not fitted.

Experiment [2] deals with Seq78-9 (DNA, aptamer) GGGAGCTCAGAATAAACGCTCAACTTTTCTGGTTACTCTCGTTTGTTTGATGTTACTTTTCGACATGAGGCCCGGATC
Put plainly: AuNP colorimetric assay (A520). The note with it: Na+ (NaCl 40 mM final, added after binding); room temperature, 30 min; 1 μg/mL α-amanitin, aptamer 0-1600 nM; 35 or 78 nt form not stated.

Experiment [3] concerns Seq78-4 (DNA, aptamer) GGGAGCTCAGAATAAACGCTCAATTTTCGCTGGCTAGTCAGTTTTCTCGTCGTGTGATTTCGACATGAGGCCCGGATC
Put plainly: AuNP colorimetric assay (A520). Conditions: Na+ (NaCl 40 mM final, added after binding); room temperature, 30 min; 1 μg/mL α-amanitin, aptamer 0-1600 nM; 35 or 78 nt form not stated.

Experiment [4] has as its system Seq78-7 (DNA, aptamer) GGGAGCTCAGAATAAACGCTCAAGTTCCTCTATTCTAGTTATGCGCTACGTACGCTAGTTCGACATGAGGCCCGGATC
Put plainly: magnetic-bead strand release, supernatant absorbance (Nanodrop). The note with it: 25 °C, 60 min; 20 μM α-amanitin; capture strand Capture-am-biotin displaced; Langmuir single-point calculation, not fitted.

For experiment [5], the system named is Seq78-2 (DNA, aptamer) GGGAGCTCAGAATAAACGCTCAAGCACGCGTCGTCTTCCTGCGCTTCTCCCCGCATCATTCGACATGAGGCCCGGATC
Briefly: AuNP colorimetric assay (A520). The note with it: Na+ (NaCl 40 mM final, added after binding); room temperature, 30 min; 1 μg/mL α-amanitin, aptamer 0-1600 nM; 35 or 78 nt form not stated.

Experiment [6] relates to Seq78-9 (DNA, aptamer) GGGAGCTCAGAATAAACGCTCAACTTTTCTGGTTACTCTCGTTTGTTTGATGTTACTTTTCGACATGAGGCCCGGATC
Put plainly: magnetic-bead strand release, supernatant absorbance (Nanodrop). The note with it: 25 °C, 60 min; 20 μM α-amanitin; capture strand Capture-am-biotin displaced; Langmuir single-point calculation, not fitted.

For experiment [7], the system named is Seq78-7 (DNA, aptamer) GGGAGCTCAGAATAAACGCTCAAGTTCCTCTATTCTAGTTATGCGCTACGTACGCTAGTTCGACATGAGGCCCGGATC
Put plainly: AuNP colorimetric assay (A520). The note with it: Na+ (NaCl 40 mM final, added after binding); room temperature, 30 min; 1 μg/mL α-amanitin, aptamer 0-1600 nM; 35 or 78 nt form not stated.

Experiment [8] deals with Seq78-2 (DNA, aptamer) GGGAGCTCAGAATAAACGCTCAAGCACGCGTCGTCTTCCTGCGCTTCTCCCCGCATCATTCGACATGAGGCCCGGATC
Put plainly: magnetic-bead strand release, supernatant absorbance (Nanodrop). Conditions: 25 °C, 60 min; 20 μM α-amanitin; capture strand Capture-am-biotin displaced; Langmuir single-point calculation, not fitted.

As to `CC[C@H](C)[C@@H]1NC(=O)CNC(=O)[C@@H]2Cc3c([nH]c4cc(O)ccc34)[S@](=O)C[C@H](NC(=O)CNC1=O)C(=O)N[C@@H](CC(N)=O)C(=O)N1C[C@H](O)C[C@H]1C(=O)N[C@@H]([C@@H](C)[C@@H](O)CO)C(=O)N2`, the dissociation constant Kd was 57.80 ± 1.001 nM in experiment [1]; 881 ± 6 nM in experiment [2]; 60 ± 3 nM in experiment [3]; 256 ± 5 nM in experiment [4]; 820 ± 5 nM in experiment [5]; 910 ± 31 nM in experiment [6]. Besides, the figures for the Kd in experiment [7] and in experiment [8] were 216 ± 3 nM and 850 ± 45 nM, respectively.
